In PubChem BioAssay (NCI):
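Five compound concentrations were applied to cells in 96-well plates for 48 hours; endpoints were derived by simple linear interpolation of the resulting dose-response curve. TGI: total growth inhibition.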

Tests used:
Test in all cases: DTP human tumour cell line panel, 48 h
CAKI-1 renal = system: CAKI-1 renal
HL-60(TB) leukemia = system: HL-60(TB) leukemia
K-562 leukemia = system: K-562 leukemia
LOX IMVI melanoma = system: LOX IMVI melanoma
MCF7 breast = system: MCF7 breast
MDA-MB-231 breast = system: MDA-MB-231 breast
NCI-H23 lung = system: NCI-H23 lung
SK-MEL-2 melanoma = system: SK-MEL-2 melanoma
SR leukemia = system: SR leukemia
U251 CNS = system: U251 CNS

Row | Compound | TGI (CAKI-1 renal) [µM] | TGI (HL-60(TB) leukemia) [µM] | TGI (K-562 leukemia) [µM] | TGI (LOX IMVI melanoma) [µM] | TGI (MCF7 breast) [µM] | TGI (MDA-MB-231 breast) [µM] | TGI (NCI-H23 lung) [µM] | TGI (SK-MEL-2 melanoma) [µM] | TGI (SR leukemia) [µM] | TGI (U251 CNS) [µM]
1 | Cc1ccc(F)c2[nH]c(-c3ccccc3)cc(=O)c12 | > 100 | > 100 | > 100 | > 100 | > 20.4 | > 100 | > 65.8 | > 100 | > 100 | > 100
2 | O=S(=O)(O)c1ccc(N=Nc2ccc(N=Nc3c(O)ccc4ccc(S(=O)(=O)O)cc34)cc2)cc1 | > 100 | > 100 | > 100 | – | > 100 | > 100 | > 100 | > 100 | > 100 | > 100
3 | O=P(O)(O)c1ccc2c(c1)OCCOCCOCCOCCO2 | – | > 100 | > 100 | > 100 | > 100 | > 100 | > 100 | – | > 100 | –
4 | CSc1c(C(N)=S)c(N)nn1-c1ccccc1 | > 100 | > 100 | > 100 | > 100 | > 100 | > 100 | > 100 | > 100 | > 100 | > 100
5 | Cc1cn(C(CO)OC(CO)CN(O)C2C3CC4CC(C3)CC2C4)c(=O)[nH]c1=O (centres undefined) | > 100 | > 100 | > 100 | – | > 100 | > 100 | > 100 | > 100 | > 100 | > 100
6 | COC(=O)c1ccc(Oc2nc3ccc(C(F)(F)F)cc3nc2-c2ccccc2)cc1 | > 100 | > 100 | > 100 | > 100 | > 100 | > 100 | > 100 | – | > 100 | > 100
7 | C[C@@H](c1ccccc1)N1C[C@@H](c2ccc3c(c2)OCO3)[C@@H]2C(=O)CCC[C@@H]21 | > 100 | > 100 | > 100 | > 100 | 71.5 | > 100 | > 100 | 94.8 | > 100 | > 100
8 | Cc1cn(CCCCOC(=O)NC(CCCN=C(N)N)C(=O)O)c(=O)[nH]c1=O (centres undefined) | > 100 | > 100 | > 100 | > 100 | > 100 | > 100 | > 100 | > 100 | > 100 | > 100
9 | COc1cc(/C=C2\N=C(c3ccccc3)N(c3nc4ccccc4s3)C2=O)cc(OC)c1OC | > 100 | > 100 | > 100 | > 100 | > 100 | > 100 | > 100 | > 100 | 42.5 | > 100
10 | Cc1cc(-c2nc3ccc(F)cc3s2)ccc1NC(=O)C(N)CCCCN (centres undefined) | 24.9 | 9.78 | 8.2 | 4.73 | 4.46 | 23.1 | 18.5 | 23.1 | 8.18 | 5.01
11 | COc1ccc2nc(N/N=C/c3ccc(C)s3)cc(C)c2c1 | 40.5 | > 100 | 49 | 33.7 | 37.5 | 43.9 | 28.6 | 41.6 | 61 | 72.9
